# Assay results published in patent publication US12180187B2, “1-phenyl-5-azinylpyrazolyl-3-oxyalkyl acids and their use for controlling unwanted plant growth” (BAYER AKTIENGESELLSCHAFT, priority 2019, dated 2024).
# What was measured:
# ECHCG [1] = test: Pre-emergence action against ECHCG, 1280 g/ha; format: in vivo, Echinochloa crus-galli; settings: visual scoring after about 3 weeks vs untreated controls, 100% = plants have died, 0% = like control plants
# Outline: (§1)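 Mono- and dicot weed seeds sown in sandy loam were treated on the covering soil surface with WP or EC formulations plus 0.5% additive at 600 L water/ha. Pots stayed in a greenhouse; damage was scored visually after ~3 weeks as percent versus untreated controls (100% = dead).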
# LOLRI [2] = test: Pre-emergence action against LOLRI, 1280 g/ha; format: in vivo, Lolium rigidum; settings: visual scoring after about 3 weeks vs untreated controls, 100% = plants have died, 0% = like control plants
# Outline: as §1
# POAAN [3] = test: Post-emergence action against POAAN, 1.28 kg/ha; format: in vivo, Poa annua; settings: dosage 1280 g/ha, visual rating about 3 weeks after treatment vs untreated controls
# Outline: (§2)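 Foliar application at the one-leaf stage: compound as WP or EC in water with 0.5% additive, sprayed at 600 L/ha. Plants are kept about 3 weeks in the greenhouse, then % herbicidal action is estimated visually (100% = death).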
# STEME [4] = test: Post-emergence action against STEME, 1.28 kg/ha; format: in vivo, Stellaria media; settings: dosage 1280 g/ha, visual rating about 3 weeks after treatment vs untreated controls (100% = plants died)
# Outline: as §2
# ALOMY [5] = test: Post-emergence action against ALOMY, 1.28 kg/ha; format: in vivo, Alopecurus myosuroides; settings: dosage 1280 g/ha, visual rating about 3 weeks after treatment vs untreated controls
# Outline: as §2
# ABUTH [6] = test: Post-emergence action against ABUTH, 1.28 kg/ha; format: in vivo, Abutilon theophrasti; settings: dosage 1280 g/ha, visual rating about 3 weeks after treatment vs untreated controls (100% = plants died)
# Outline: as §2
# KCHSC [7] = test: Pre-emergence action against KCHSC, 1280 g/ha; format: in vivo, Bassia scoparia; settings: scored visually after about 3 weeks vs untreated controls (100% = plants have died)
# Outline: as §1
# ABUTH [8] = test: Pre-emergence action against ABUTH, 1280 g/ha; format: in vivo, Abutilon theophrasti; settings: scored visually after about 3 weeks vs untreated controls (100% = plants have died)
# Text: 1. Pre-Emergence Herbicidal Effect and Crop Plant Compatibility a) Seeds of mono- and dicotyledonous weed plants are placed in plastic pots in sandy loam soil (doubly sown with one species each of mono- or dicotyledonous weed plants per pot) and covered with soil. The compounds of the invention, formulated in the form of wettable powders (WP) or as emulsion concentrates (EC), are then applied onto the surface of the covering soil as aqueous suspension or emulsion with addition of 0.5% additive at a water application rate equivalent to 600 litres per hectare. After the treatment, the pots are placed in a greenhouse and kept under good growth conditions for the trial plants. After about 3 weeks, the effect of the preparations is scored visually in comparison with untreated controls as percentages. For example, 100% activity=the plants have died, 0% activity=like control plants. 1. Pre-Emergence Effectiveness Tables 1 to 12 below show the effects of selected compounds of the general formula (I) according to Tables 1 and 2 on various harmful plants and at an application rate corresponding to 1280 g/ha, which were obtained by the experimental procedure mentioned above.
# DIGSA [9] = test: Post-emergence action against DIGSA, 1.28 kg/ha; format: in vivo, Digitaria sanguinalis; settings: dosage 1280 g/ha, visual rating about 3 weeks after treatment vs untreated controls
# Outline: as §2
# AMARE [10] = test: Pre-emergence action against AMARE, 1280 g/ha; format: in vivo, Amaranthus retroflexus; settings: scored visually after about 3 weeks vs untreated controls (100% = plants have died)
# Outline: as §1
# LOLRI [11] = test: Post-emergence action against LOLRI, 1.28 kg/ha; format: in vivo, Lolium rigidum; settings: dosage 1280 g/ha, visual rating about 3 weeks after treatment vs untreated controls
# Outline: as §2
# STEME [12] = test: Pre-emergence action against STEME, 1280 g/ha; format: in vivo, Stellaria media; settings: scored visually after about 3 weeks vs untreated controls (100% = plants have died)
# Outline: as §1
# KCHSC [13] = test: Post-emergence action against KCHSC, 1.28 kg/ha; format: in vivo, Bassia scoparia; settings: dosage 1280 g/ha, visual rating about 3 weeks after treatment vs untreated controls (100% = plants died)
# Outline: as §2
# VERPE [14] = test: Pre-emergence action against VERPE, 1280 g/ha; format: in vivo, Veronica persica; settings: scored visually after about 3 weeks vs untreated controls (100% = plants have died)
# Outline: as §1
# MATIN [15] = test: Pre-emergence action against MATIN, 1280 g/ha; format: in vivo, Tripleurospermum inodorum (Matricaria inodora); settings: scored visually after about 3 weeks vs untreated controls (100% = plants have died)
# Outline: as §1
# AMARE [16] = test: Post-emergence action against AMARE, 1.28 kg/ha; format: in vivo, Amaranthus retroflexus; settings: dosage 1280 g/ha, visual rating about 3 weeks after treatment vs untreated controls (100% = plants died)
# Outline: as §2
# POAAN [17] = test: Pre-emergence action against POAAN, 1280 g/ha; format: in vivo, Poa annua; settings: visual scoring after about 3 weeks vs untreated controls, 100% = plants have died, 0% = like control plants
# Outline: as §1
# MATIN [18] = test: Post-emergence action against MATIN, 1.28 kg/ha; format: in vivo, Tripleurospermum inodorum (Matricaria inodora); settings: dosage 1280 g/ha, visual rating about 3 weeks after treatment vs untreated controls (100% = plants died)
# Outline: as §2
# SETVI [19] = test: Pre-emergence action against SETVI, 1280 g/ha; format: in vivo, Setaria viridis; settings: visual scoring after about 3 weeks vs untreated controls, 100% = plants have died, 0% = like control plants
# Outline: as §1
# DIGSA [20] = test: Pre-emergence action against DIGSA, 1280 g/ha; format: in vivo, Digitaria sanguinalis; settings: visual scoring after about 3 weeks vs untreated controls, 100% = plants have died, 0% = like control plants
# Outline: as §1
# ALOMY [21] = test: Pre-emergence action against ALOMY, 1280 g/ha; format: in vivo, Alopecurus myosuroides; settings: visual scoring after about 3 weeks vs untreated controls, 100% = plants have died, 0% = like control plants
# Outline: as §1
# VERPE [22] = test: Post-emergence action against VERPE, 1.28 kg/ha; format: in vivo, Veronica persica; settings: dosage 1280 g/ha, visual rating about 3 weeks after treatment vs untreated controls (100% = plants died)
# Outline: as §2
# ECHGC = test: Pre-emergence action at 320 g/ha against ECHGC; format: in vivo, Echinochloa crus-galli; settings: visual scoring after about 3 weeks vs untreated controls
# Text: b) Seeds of monocotyledonous and dicotyledonous weed plants and crop plants are placed in plastic or organic planting pots and covered with soil. The compounds of the invention, formulated in the form of wettable powders (WP) or as emulsion concentrates (EC), are then applied onto the surface of the covering soil as aqueous suspension or emulsion with addition of 0.5% additive at a water application rate of 600 l/ha (converted). After the treatment, the pots are placed in a greenhouse and kept under good growth conditions for the trial plants. After about 3 weeks, the effect of the preparations is scored visually in comparison with untreated controls as percentages. For example, 100% activity=the plants have died, 0% activity=like control plants. Tables 13 to 26 below show the effects of selected compounds of the general formula (I) on various harmful plants and at an application rate corresponding to 320 g/ha, which were obtained by the experimental procedure mentioned above.
# AVEFA = test: Pre-emergence action at 320 g/ha against AVEFA; format: in vivo; settings: visual scoring after about 3 weeks vs untreated controls
# Outline: (§3)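 Greenhouse pot trial in which formulated compound (wettable powder or emulsion concentrate) goes onto the soil surface right after sowing, at a spray volume of 600 l/ha including 0.5% additive. Effects are judged visually after about 3 weeks (0% = like control, 100% = dead).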
# LOLRI [23] = test: Pre-emergence action at 320 g/ha against LOLRI; format: in vivo, Lolium rigidum; settings: visual scoring after about 3 weeks vs untreated controls
# Outline: as §3
# ALOMY [24] = test: Pre-emergence action at 320 g/ha against ALOMY; format: in vivo, Alopecurus myosuroides; settings: scored visually after about 3 weeks vs untreated controls (100% = plants have died)
# Outline: as §3
# AMARE [25] = test: Pre-emergence action at 320 g/ha against AMARE; format: in vivo, Amaranthus retroflexus; settings: visual scoring after about 3 weeks vs untreated controls
# Outline: as §3
# SETVI [26] = test: Post-emergence action against SETVI, 1.28 kg/ha; format: in vivo, Setaria viridis; settings: dosage 1280 g/ha, visual rating about 3 weeks after treatment vs untreated controls
# Outline: as §2
# SETVI [27] = test: Pre-emergence action at 320 g/ha against SETVI; format: in vivo, Setaria viridis; settings: visual scoring after about 3 weeks vs untreated controls
# Outline: as §3
# ECHCG [28] = test: Post-emergence action against ECHCG, 1.28 kg/ha; format: in vivo, Echinochloa crus-galli; settings: dosage 1280 g/ha, visual rating about 3 weeks after treatment vs untreated controls
# Outline: as §2
# DIGSA [29] = test: Pre-emergence action at 320 g/ha against DIGSA; format: in vivo, Digitaria sanguinalis; settings: visual scoring after about 3 weeks vs untreated controls
# Outline: as §3
# VERPE [30] = test: Pre-emergence action at 320 g/ha against VERPE; format: in vivo, Veronica persica; settings: visual scoring after about 3 weeks vs untreated controls
# Outline: as §3
# MATIN [31] = test: Pre-emergence action at 320 g/ha against MATIN; format: in vivo, Tripleurospermum inodorum (Matricaria inodora); settings: visual scoring after about 3 weeks vs untreated controls
# Outline: as §3
# VIOTR = test: Pre-emergence action at 320 g/ha against VIOTR; format: in vivo, Viola tricolor; settings: dosage 320 g/ha
# Outline: as §3
# POLCO = test: Pre-emergence action at 320 g/ha against POLCO; format: in vivo, Fallopia convolvulus (Polygonum convolvulus); settings: visual scoring after about 3 weeks vs untreated controls
# Outline: as §3
Compound,Pre-emergence action against ECHCG (ECHCG [1]),Pre-emergence action against LOLRI (LOLRI [2]),Post-emergence action against POAAN (POAAN [3]),Post-emergence action against STEME (STEME [4]),Post-emergence action against ALOMY (ALOMY [5]),Post-emergence action against ABUTH (ABUTH [6]),Pre-emergence action against KCHSC (KCHSC [7]),Pre-emergence action against ABUTH (ABUTH [8]),Pre-emergence action against AMARE (AMARE [10]),Post-emergence action against LOLRI (LOLRI [11]),Pre-emergence action against STEME (STEME [12]),Post-emergence action against KCHSC (KCHSC [13]),Pre-emergence action against VERPE (VERPE [14]),Pre-emergence action against MATIN (MATIN [15]),Post-emergence action against AMARE (AMARE [16]),Pre-emergence action against POAAN (POAAN [17]),Post-emergence action against MATIN (MATIN [18]),Pre-emergence action against SETVI (SETVI [19]),Pre-emergence action against DIGSA (DIGSA [20]),Pre-emergence action against ALOMY (ALOMY [21]),other results
COC(=O)[C@@H](C)Oc1nn(-c2cc(F)ccc2F)c(-c2ccc(F)nc2)c1C#N [VII-099],100%,100%,100%,100%,100%,90%,100%,90%,100%,100%,100%,100%,100%,100%,100%,100%,100%,100%,100%,90%,Post-emergence action against DIGSA (DIGSA [9]): 100%; Post-emergence action against VERPE (VERPE [22]): 100%
O=C(COc1nn(-c2ccccc2F)c(-c2ccc(F)nc2)c1Br)OCCCl [VII-108],100%,100%,100%,100%,100%,90%,90%,90%,100%,100%,100%,90%,100%,100%,100%,100%,100%,100%,100%,100%,Pre-emergence action against ECHGC in % (ECHGC): 100%; Pre-emergence action against AVEFA in % (AVEFA): 80%; Pre-emergence action against LOLRI in % (LOLRI [23]): 100%; Pre-emergence action at 320 g/ha against ALOMY in % (ALOMY [24]): 100%; Pre-emergence action against AMARE in % (AMARE [25]): 100%; Post-emergence action against SETVI (SETVI [26]): 90%; Post-emergence action against DIGSA (DIGSA [9]): 100%; Pre-emergence action against SETVI in % (SETVI [27]): 100%; Post-emergence action against ECHCG (ECHCG [28]): 100%; Pre-emergence action against DIGSA in % (DIGSA [29]): 100%; Pre-emergence action against VERPE in % (VERPE [30]): 100%; Pre-emergence action against MATIN in % (MATIN [31]): 100%; Post-emergence action against VERPE (VERPE [22]): 100%; Pre-emergence action against VIOTR in % (VIOTR): 100%; Pre-emergence action against POLCO in % (POLCO): 100%
COC(=O)[C@@H](C)Oc1nn(-c2ccccc2F)c(-c2ccc(F)nc2)c1Br [VII-123-a],100%,100%,100%,100%,100%,90%,100%,90%,100%,100%,100%,90%,100%,100%,90%,100%,90%,100%,100%,100%,Post-emergence action against SETVI (SETVI [26]): 100%; Post-emergence action against ECHCG (ECHCG [28]): 100%; Post-emergence action against VERPE (VERPE [22]): 90%
